Results taken from ChEMBL document CHEMBL4732047, “New imidazopyridines with phosphodiesterase 4 and 7 inhibitory activity and their efficacy in animal models of inflammatory and autoimmune diseases” (Eur J Med Chem, 2021).
Active and inactive are the calls of the source. The rule behind the calls is not given here.

Experiments:
[1] = system: Mus musculus; test: Hepatoprotective activity in ConA-induced BALB/c hepatitis mouse model assessed as decrease in serum alanine aminotransferase level at 50 mg/kg, ip administration and measured after 8 hrs relative to control; format: functional, organism-based
[2] = system: Mus musculus; test: Hepatoprotective activity in ConA-induced BALB/c hepatitis mouse model assessed as decrease in serum IFNgamma level at 50 mg/kg, ip administration and measured after 8 hrs relative to control; format: functional, organism-based
[3] = system: Rattus norvegicus; test: Antiinflammatory activity in collagen-induced arthritis Lewis rat model assessed as decrease in paw swelling at 20 mg/kg, ip once daily administered on day 20 after collagen treatment and treated until day 40 by macroscopic observation analysis; format: functional, organism-based
[4] = system: Rattus norvegicus; test: Antiinflammatory activity in LPS-induced Wistar rat endotoxemia model assessed as decrease in plasma TNFalpha level at 20 mg/kg, ip measured after 1.5 hr; format: functional; design: scale not given: the % may be the effect or the level left
[5] = system: Mus musculus; test: Immunosuppressive activity in MOG (35 to 55 residues) toxin-induced experimental autoimmune encephalomyelitis C57BL/6 mouse model assessed as reduction in white matter vacuolation in cerebellum at 50 mg/kg, ip relative to untreated control; format: functional, organism-based
[6] = Tmax in male Wistar rat at 10 mg/kg, ip; format: ADME, organism-based; details: in vivo
[7] = system: Mus musculus; test: Immunosuppressive activity in MOG (35 to 55 residues) toxin-induced experimental autoimmune encephalomyelitis female C57BL/6 mouse model assessed as reduction in clinical scores at 50 mg/kg, ip administered […] once daily starting from day 1 post immunization and measured 15 days; format: functional, organism-based; details: time 15.0 day
[8] = Brain to serum concentration ratio in C57BL/6 mouse at 50 mg/kg, ip measured after 5 mins; format: ADME, organism-based
[9] = Elimination half life in Wistar rat; format: ADME; details: in vivo, read-out: beta t1/2
[10] = system: Mus musculus; test: Hepatoprotective activity in ConA-induced BALB/c hepatitis mouse model assessed as decrease in serum aspartate aminotransferase level at 10 mg/kg, ip administration and measured after 8 hrs relative to control; format: functional, organism-based
[11] = molecular target: Dual specificity calcium/calmodulin-dependent 3',5'-cyclic nucleotide phosphodiesterase 1B (Homo sapiens, UniProt Q01064); test: Inhibition of human recombinant PDE1B using cAMP as substrate incubated for 20 mins measured by Kinase Glo reagent based microplate reader assay
[12] = Tmax in female Lewis rat at 10 mg/kg, iv; format: ADME, organism-based; details: in vivo
[13] = system: Mus musculus; test: Hepatoprotective activity in ConA-induced BALB/c hepatitis mouse model assessed as decrease in serum IL-6 level at 10 mg/kg, ip administration and measured after 8 hrs relative to control; format: functional, organism-based
[14] = molecular target: 3',5'-cyclic-AMP phosphodiesterase 4B (Homo sapiens, UniProt Q07343); test: Inhibition of human recombinant PDE4B using cAMP as substrate incubated for 20 mins measured by Kinase Glo reagent based microplate reader assay
[15] = Drug uptake in C57BL/6 mouse brain at 50 mg/kg, ip measured up to 60 mins; format: ADME, organism-based; details: read-out: Drug uptake
[16] = Cmax in male Wistar rat at 10 mg/kg, ip; format: ADME, organism-based; design: route intraperitoneal, dose 10 mg/kg; details: in vivo
[17] = AUC in female Lewis rat at 10 mg/kg, iv; format: ADME, organism-based; design: dose 10 mg/kg; details: in vivo
[18] = Apparent volume of distribution during terminal phase in male Wistar rat at 10 mg/kg, ip; format: ADME, organism-based; details: in vivo, read-out: Vz/F
[19] = molecular target: 3',5'-cyclic-AMP phosphodiesterase 4D (Homo sapiens, UniProt Q08499); test: Inhibition of human recombinant PDE4D using cAMP as substrate incubated for 20 mins measured by Kinase Glo reagent based microplate reader assay
[20] = system: Mus musculus; test: Hepatoprotective activity in ConA-induced BALB/c hepatitis mouse model assessed as decrease in serum IL-6 level at 50 mg/kg, ip administration and measured after 8 hrs relative to control; format: functional, organism-based
[21] = molecular target: cGMP-inhibited 3',5'-cyclic phosphodiesterase 3A (Homo sapiens, UniProt Q14432); test: Inhibition of human recombinant PDE3A using cAMP as substrate incubated for 20 mins measured by Kinase Glo reagent based microplate reader assay
[22] = molecular target: cGMP-dependent 3',5'-cyclic phosphodiesterase (Homo sapiens, UniProt O00408); test: Inhibition of human recombinant PDE2A using cGMP as substrate incubated for 20 mins measured by Kinase Glo reagent based microplate reader assay
[23] = system: Mus musculus; test: Hepatoprotective activity in ConA-induced BALB/c hepatitis mouse model assessed as decrease in serum aspartate aminotransferase level at 50 mg/kg, ip administration and measured after 8 hrs relative to control; format: functional, organism-based
[24] = system: Mus musculus; test: Hepatoprotective activity in ConA-induced BALB/c hepatitis mouse model assessed as decrease in serum alanine aminotransferase level at 10 mg/kg, ip administration and measured after 8 hrs relative to control; format: functional, organism-based
[25] = Brain to serum concentration ratio in C57BL/6 mouse at 50 mg/kg, ip measured after 60 mins; format: ADME, organism-based
[26] = Brain to serum concentration ratio in C57BL/6 mouse at 50 mg/kg, ip measured after 15 mins; format: ADME, organism-based
[27] = molecular target: cAMP and cAMP-inhibited cGMP 3',5'-cyclic phosphodiesterase 10A (Homo sapiens, UniProt Q9Y233); test: Inhibition of human recombinant PDE10A using cAMP as substrate incubated for 20 mins measured by Kinase Glo reagent based microplate reader assay
[28] = AUC in male Wistar rat at 10 mg/kg, ip; format: ADME, organism-based; design: dose 10 mg/kg; details: in vivo
[29] = molecular target: High affinity 3',5'-cyclic-AMP phosphodiesterase 7A (Homo sapiens, UniProt Q13946); test: Inhibition of human recombinant PDE7A using cAMP as substrate incubated for 20 mins measured by Kinase Glo reagent based microplate reader assay
[30] = Cmax in female Lewis rat at 10 mg/kg, iv; format: ADME, organism-based; design: route intravenous, dose 10 mg/kg; details: in vivo
[31] = system: Rattus norvegicus; test: Antiinflammatory activity in LPS-induced Wistar rat endotoxemia model assessed as decrease in plasma TNFalpha level at 20 mg/kg, ip measured after 1 hr; format: functional; design: scale not given: the % may be the effect or the level left
[32] = system: Mus musculus; test: Immunosuppressive activity in MOG (35 to 55 residues) toxin-induced experimental autoimmune encephalomyelitis C57BL/6 mouse model assessed decrease in macrophages infiltration into spinal cored at 50 mg/kg, ip relative to untreated control; format: functional, organism-based
[33] = Elimination half life in male Wistar rat at 10 mg/kg, ip; format: ADME, organism-based; details: in vivo, read-out: beta t1/2
[34] = system: Mus musculus; test: Hepatoprotective activity in ConA-induced BALB/c hepatitis mouse model assessed as decrease in serum IFNgamma level at 10 mg/kg, ip administration and measured after 8 hrs relative to control; format: functional, organism-based
[35] = Selectivity index, ratio of IC50 for inhibition of human recombinant PDE3A to IC50 for inhibition of human recombinant PDE4B
[36] = system: Mus musculus; test: Immunosuppressive activity in MOG (35 to 55 residues) toxin-induced experimental autoimmune encephalomyelitis C57BL/6 mouse model assessed decrease in polymorphonuclear leukocytes infiltration into spinal cored at 50 mg/kg, ip relative to untreated control; format: functional, organism-based
[37] = Clearance in female Lewis rat at 10 mg/kg, iv; format: ADME, organism-based; details: in vivo
[38] = system: Rattus norvegicus; test: Antiinflammatory activity in LPS-induced Wistar rat endotoxemia model assessed as decrease in plasma TNFalpha level at 20 mg/kg, ip measured after 2 hr; format: functional; design: scale not given: the % may be the effect or the level left
[39] = Clearance in male Wistar rat at 10 mg/kg, ip; format: ADME, organism-based; details: in vivo
[40] = Apparent volume of distribution during terminal phase in female Lewis rat at 10 mg/kg, iv; format: ADME, organism-based; details: in vivo
[41] = Elimination half life in female Lewis rat at 10 mg/kg, iv; format: ADME, organism-based; details: in vivo, read-out: beta t1/2
[42] = molecular target: cGMP-specific 3',5'-cyclic phosphodiesterase (Homo sapiens, UniProt O76074); test: Inhibition of human recombinant PDE5A using cGMP as substrate incubated for 20 mins measured by Kinase Glo reagent based microplate reader assay
[43] = system: Mus musculus; test: Immunosuppressive activity in MOG (35 to 55 residues) toxin-induced experimental autoimmune encephalomyelitis C57BL/6 mouse model assessed reduction in disease onset at 50 mg/kg, ip; format: functional, organism-based
[44] = Selectivity index, ratio of IC50 for inhibition of human recombinant PDE4D to IC50 for inhibition of human recombinant PDE4B

cGMP-dependent 3',5'-cyclic phosphodiesterase, sequence (O00408 whole entry): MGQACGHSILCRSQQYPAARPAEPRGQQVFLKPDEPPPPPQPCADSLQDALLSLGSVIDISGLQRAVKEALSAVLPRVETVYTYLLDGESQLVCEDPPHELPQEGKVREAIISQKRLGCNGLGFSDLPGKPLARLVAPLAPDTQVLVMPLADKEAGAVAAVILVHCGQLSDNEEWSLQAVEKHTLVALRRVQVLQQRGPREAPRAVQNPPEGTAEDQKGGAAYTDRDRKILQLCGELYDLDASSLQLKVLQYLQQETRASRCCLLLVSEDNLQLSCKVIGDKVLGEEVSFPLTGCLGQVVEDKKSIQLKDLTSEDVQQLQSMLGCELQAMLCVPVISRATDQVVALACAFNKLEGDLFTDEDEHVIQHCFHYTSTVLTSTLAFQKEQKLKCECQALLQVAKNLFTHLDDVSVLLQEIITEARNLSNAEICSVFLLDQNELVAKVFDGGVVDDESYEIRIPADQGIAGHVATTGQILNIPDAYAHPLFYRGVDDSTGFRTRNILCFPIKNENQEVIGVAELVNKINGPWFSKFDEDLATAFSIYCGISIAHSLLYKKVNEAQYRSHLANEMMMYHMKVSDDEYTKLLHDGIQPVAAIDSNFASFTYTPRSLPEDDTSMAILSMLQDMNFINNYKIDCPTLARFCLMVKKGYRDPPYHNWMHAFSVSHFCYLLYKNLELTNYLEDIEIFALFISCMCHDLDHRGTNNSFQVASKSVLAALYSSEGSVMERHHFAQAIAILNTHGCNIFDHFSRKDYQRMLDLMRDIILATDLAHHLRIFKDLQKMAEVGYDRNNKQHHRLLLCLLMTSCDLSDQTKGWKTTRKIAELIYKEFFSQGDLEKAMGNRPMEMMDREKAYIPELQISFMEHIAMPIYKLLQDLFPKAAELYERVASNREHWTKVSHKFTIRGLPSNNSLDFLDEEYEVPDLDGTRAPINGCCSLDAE
Dual specificity calcium/calmodulin-dependent 3',5'-cyclic nucleotide phosphodiesterase 1B, sequence (Q01064 whole entry): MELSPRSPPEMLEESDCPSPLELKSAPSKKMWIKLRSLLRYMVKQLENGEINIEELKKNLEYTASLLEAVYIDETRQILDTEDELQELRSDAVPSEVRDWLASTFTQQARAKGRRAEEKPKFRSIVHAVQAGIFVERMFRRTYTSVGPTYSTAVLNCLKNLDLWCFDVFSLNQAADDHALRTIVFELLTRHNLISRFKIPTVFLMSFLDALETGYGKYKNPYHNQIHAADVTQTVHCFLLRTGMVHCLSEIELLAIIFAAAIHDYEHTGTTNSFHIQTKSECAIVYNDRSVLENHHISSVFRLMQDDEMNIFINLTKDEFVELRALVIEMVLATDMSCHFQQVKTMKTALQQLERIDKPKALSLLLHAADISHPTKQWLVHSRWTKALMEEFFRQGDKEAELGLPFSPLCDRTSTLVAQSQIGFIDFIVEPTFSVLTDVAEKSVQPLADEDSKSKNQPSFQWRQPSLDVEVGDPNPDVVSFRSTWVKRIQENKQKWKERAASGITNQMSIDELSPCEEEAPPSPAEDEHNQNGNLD
High affinity 3',5'-cyclic-AMP phosphodiesterase 7A, sequence (Q13946 whole entry): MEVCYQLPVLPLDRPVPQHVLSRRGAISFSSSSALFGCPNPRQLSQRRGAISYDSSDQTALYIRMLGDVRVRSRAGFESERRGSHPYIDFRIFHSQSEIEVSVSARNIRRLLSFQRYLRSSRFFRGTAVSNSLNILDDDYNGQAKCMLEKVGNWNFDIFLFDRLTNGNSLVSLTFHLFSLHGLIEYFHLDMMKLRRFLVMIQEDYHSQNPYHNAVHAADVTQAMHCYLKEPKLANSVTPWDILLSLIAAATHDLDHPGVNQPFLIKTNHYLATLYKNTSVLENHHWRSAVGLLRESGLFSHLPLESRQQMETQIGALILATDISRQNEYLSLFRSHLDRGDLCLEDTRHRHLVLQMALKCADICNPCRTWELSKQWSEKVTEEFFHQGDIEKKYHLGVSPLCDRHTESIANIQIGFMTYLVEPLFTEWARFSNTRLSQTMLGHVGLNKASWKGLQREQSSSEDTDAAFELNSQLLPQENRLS
3',5'-cyclic-AMP phosphodiesterase 4B, sequence (Q07343 whole entry): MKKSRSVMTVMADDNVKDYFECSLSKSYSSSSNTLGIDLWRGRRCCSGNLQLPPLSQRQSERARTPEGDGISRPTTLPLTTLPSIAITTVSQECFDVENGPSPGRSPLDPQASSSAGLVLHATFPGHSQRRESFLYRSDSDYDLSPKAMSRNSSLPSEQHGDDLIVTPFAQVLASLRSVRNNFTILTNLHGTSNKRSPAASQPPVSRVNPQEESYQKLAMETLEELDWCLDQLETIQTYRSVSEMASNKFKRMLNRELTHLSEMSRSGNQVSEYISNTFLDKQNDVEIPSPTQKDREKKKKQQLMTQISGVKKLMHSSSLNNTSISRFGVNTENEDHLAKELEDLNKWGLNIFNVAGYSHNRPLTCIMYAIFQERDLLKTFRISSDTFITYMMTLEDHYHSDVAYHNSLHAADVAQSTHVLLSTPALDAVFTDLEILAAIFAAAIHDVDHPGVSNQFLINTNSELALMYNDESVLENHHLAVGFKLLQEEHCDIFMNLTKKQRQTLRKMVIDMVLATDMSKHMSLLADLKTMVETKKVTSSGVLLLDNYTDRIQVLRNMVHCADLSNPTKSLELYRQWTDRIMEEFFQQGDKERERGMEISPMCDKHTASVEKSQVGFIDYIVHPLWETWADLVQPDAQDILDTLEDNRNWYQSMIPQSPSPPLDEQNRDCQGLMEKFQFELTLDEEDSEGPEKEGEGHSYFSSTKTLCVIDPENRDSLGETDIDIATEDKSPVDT
cAMP and cAMP-inhibited cGMP 3',5'-cyclic phosphodiesterase 10A, sequence (Q9Y233 whole entry): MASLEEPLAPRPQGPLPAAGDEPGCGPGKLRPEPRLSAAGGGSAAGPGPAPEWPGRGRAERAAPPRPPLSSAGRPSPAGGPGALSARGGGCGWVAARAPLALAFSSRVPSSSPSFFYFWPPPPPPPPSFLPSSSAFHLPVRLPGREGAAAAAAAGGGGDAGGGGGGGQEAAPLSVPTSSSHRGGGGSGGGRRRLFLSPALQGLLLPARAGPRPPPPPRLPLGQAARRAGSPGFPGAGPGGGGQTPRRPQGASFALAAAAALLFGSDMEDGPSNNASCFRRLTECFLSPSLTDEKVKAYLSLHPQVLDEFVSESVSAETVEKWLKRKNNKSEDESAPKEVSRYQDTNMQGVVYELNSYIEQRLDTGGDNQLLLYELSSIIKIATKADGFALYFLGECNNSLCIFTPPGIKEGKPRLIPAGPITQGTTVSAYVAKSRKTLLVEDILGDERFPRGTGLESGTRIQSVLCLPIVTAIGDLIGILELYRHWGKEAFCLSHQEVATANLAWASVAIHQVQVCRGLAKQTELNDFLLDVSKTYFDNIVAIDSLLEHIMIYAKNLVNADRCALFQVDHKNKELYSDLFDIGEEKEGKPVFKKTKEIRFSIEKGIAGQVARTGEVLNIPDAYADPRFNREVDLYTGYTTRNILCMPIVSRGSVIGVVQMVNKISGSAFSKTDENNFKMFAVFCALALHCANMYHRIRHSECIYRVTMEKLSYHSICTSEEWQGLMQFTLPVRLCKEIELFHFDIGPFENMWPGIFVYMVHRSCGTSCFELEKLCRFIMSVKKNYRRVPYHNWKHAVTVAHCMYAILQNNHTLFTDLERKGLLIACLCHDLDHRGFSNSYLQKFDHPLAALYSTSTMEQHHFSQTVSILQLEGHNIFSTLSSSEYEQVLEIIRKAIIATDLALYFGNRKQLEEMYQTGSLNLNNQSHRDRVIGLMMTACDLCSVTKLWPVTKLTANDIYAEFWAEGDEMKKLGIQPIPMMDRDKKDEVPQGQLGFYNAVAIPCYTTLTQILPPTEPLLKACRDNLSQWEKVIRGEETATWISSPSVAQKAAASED
cGMP-inhibited 3',5'-cyclic phosphodiesterase 3A, sequence (Q14432 whole entry): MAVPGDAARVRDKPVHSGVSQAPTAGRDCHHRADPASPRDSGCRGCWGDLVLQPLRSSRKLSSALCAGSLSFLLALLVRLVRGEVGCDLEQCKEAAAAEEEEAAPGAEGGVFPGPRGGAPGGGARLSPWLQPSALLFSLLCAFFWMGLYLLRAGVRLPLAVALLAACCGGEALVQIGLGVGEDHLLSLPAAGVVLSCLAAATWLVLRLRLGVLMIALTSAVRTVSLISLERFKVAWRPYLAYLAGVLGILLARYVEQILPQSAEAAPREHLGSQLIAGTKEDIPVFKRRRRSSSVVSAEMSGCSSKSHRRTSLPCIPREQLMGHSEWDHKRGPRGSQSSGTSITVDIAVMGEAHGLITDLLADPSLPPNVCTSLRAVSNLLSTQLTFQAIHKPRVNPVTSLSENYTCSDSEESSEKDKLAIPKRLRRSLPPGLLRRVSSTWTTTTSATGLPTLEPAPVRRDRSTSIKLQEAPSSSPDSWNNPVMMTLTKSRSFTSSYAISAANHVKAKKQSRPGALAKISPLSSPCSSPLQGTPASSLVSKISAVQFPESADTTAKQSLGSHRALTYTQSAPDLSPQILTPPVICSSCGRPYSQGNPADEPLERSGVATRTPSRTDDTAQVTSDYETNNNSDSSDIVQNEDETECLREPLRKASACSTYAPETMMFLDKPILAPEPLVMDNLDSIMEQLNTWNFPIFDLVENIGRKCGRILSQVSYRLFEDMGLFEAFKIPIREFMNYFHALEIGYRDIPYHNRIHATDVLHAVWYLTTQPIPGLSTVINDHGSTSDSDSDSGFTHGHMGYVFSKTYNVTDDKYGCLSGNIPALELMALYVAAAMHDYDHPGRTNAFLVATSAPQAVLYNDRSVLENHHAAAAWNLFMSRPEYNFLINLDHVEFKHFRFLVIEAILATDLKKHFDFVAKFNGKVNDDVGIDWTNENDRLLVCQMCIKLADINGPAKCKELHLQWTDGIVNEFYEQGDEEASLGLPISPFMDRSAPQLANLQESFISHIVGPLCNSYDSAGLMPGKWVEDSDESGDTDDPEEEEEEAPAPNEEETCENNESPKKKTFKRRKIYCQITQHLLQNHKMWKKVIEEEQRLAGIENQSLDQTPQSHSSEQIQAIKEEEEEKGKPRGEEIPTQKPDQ

SMILES: OCCCNc1ccnc2c1nc(-c1ccco1)n2C1CCCC1
- Activity [1]: Active
- Activity [2]: Active
- Activity [3]: Active
- Activity [4]: 51%
- Activity [5]: Active
- Tmax [6]: 15 min
- Activity [7]: Active
- Kp at 5 min [8]: 2.96
- half-life [9]: 30 min
- Activity [10]: Active
- IC50 [11]: 8.45 µM
- Tmax [12]: 0 h
- Activity [13]: Active
- IC50 [14]: 2.53 µM
- concentration at 1 h [15]: ≥ 830 ng/mL
- Cmax [16]: 1940 ng/mL
- AUC [17]: 2530 ng·h/mL
- Vd/F [18]: 3.92 L/kg
- IC50 [19]: 35.6 µM
- Activity [20]: Active
- IC50 [21]: 47.3 µM
- IC50 [22]: 40.7 µM
- Activity [23]: Active
- Activity [24]: Active
- Kp at 1 h [25]: 4.34
- Kp at […] [26]: 5.87
- IC50 [27]: 5.75 µM
- AUC [28]: 1230 ng·h/mL
- IC50 [29]: 88 µM
- Cmax [30]: 10600 ng/mL
- Activity [31]: 49%
- Activity [32]: Active
- half-life [33]: 20.1 min
- Activity [34]: Active
- Ratio IC50 [35]: > 10
- Activity [36]: Active
- clearance [37]: 70 mL/min/kg
- Activity [38]: 44%
- CL/F [39]: 140 mL/min/kg
- Vz/F [40]: 1.85 L/kg
- half-life [41]: 19.5 min
- IC50 [42]: 2.71 µM
- Activity [43]: Active
- Ratio IC50 [44]: > 10
